Common to all, as to type: cell-based
The nature of data set [1]: Cytotoxicity (CC50) in MT4 cells, CellTiter-Glo. To be noted: human.
Description: (§3) For the antiviral assay utilizing MT4 cells, 0.4 μL of 189× test concentration of 3-fold serially diluted compound in DMSO was added to 40 μL of cell growth medium (RPMI 1640, 10% FBS, 1% penicilline/Streptomycine, 1% L-Glutamine, 1% HEPES) in each well of 384-well assay plates (10 concentrations) in quidruplicate.
(§4) 1 mL aliquots of 2×10^6 MT4 cells are pre-infected for 1 and 3 hours respectively at 37° C. with 25 μL (MT4) or of either cell growth medium (mock-infected) or a fresh 1:250 dilution of an HIV-IIIb concentrated ABI stock (0.004 m.o.i. for MT4 cells). Infected and uninfected cells are diluted in cell growth medium and 35 μL of 2000 (for MT4) cells is added to each well of the assay plates.
(§5) Assay plates were then incubated in a 37° C. incubator. After 5 days of incubation, 25 μL of 2× concentrated CellTiter-Glo™ Reagent (catalog # G7573, Promega Biosciences, Inc., Madison, Wis.) was added to each well of the assay plate. Cell lysis was carried out by incubating at room temperature for 2-3 minutes, and then chemiluminescence was read using the Envision reader (PerkinElmer).
For another data set, the system named is HIV-IIIb. Kind of data set: Antiviral assay in MT4 cells. The conditions noted are these: Human immunodeficiency virus 1, IIIB, MT4, 120 h.
The next data set concerns the target T1, human PXR (NR1I2) (Homo sapiens, UniProt O75469).
T1 construct: expressed in transfected cells; host or cells: DPX2 (stably transformed tumor cell line)
T1 sequence (O75469 1-434): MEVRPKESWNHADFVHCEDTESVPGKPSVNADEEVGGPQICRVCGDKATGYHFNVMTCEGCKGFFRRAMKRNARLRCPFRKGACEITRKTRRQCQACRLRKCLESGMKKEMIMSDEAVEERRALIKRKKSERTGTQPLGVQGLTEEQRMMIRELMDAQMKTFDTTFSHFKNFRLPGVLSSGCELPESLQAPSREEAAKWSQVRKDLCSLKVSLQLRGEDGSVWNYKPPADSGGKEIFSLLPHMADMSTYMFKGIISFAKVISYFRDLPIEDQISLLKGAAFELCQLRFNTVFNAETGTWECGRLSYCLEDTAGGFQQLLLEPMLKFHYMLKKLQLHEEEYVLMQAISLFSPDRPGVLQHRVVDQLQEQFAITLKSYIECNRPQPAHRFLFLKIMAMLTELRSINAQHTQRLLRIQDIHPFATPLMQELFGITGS
Kind of data set: Human PXR activation assay, luciferase reporter gene in DPX2 cells. The conditions noted are these: human, relative to maximum fold induction by 10 or 20 uM rifampicin. The procedure:
(§1) Luciferase Reporter Gene Assay.
(§2) A stably transformed tumor cell line (DPX2) plated on 96-well microtiter plates. DPX2 cells harbor the human PXR gene (NR1I2) and a luciferase reporter gene linked to two promoters identified in the human CYP3A4 gene, namely XREM and PXRE. The cells are treated with six concentrations of compounds (0.15˜50 µM) and incubated for 24 hr. The number of viable cells will be determined and the reporter gene activity is assessed. Positive control: Rifampicin at 6 concentrations (0.1˜20 µM). % Emax relative to the maximum fold induction by 10 or 20 µM RIF is calculated for test compounds according to the following equation which adjusts for the DMSO background: % Emax=(Fold induction−1)/(Maximum fold induction by RIF−1)×100%.

The next data set concerns the target T2, human PXR (Homo sapiens, UniProt O75469).
T2 construct: expressed in transfected cells; host or cells: DPX2 (stably transformed tumor cell line)
T2 sequence (O75469 1-434): T1 sequence (O75469 1-434)
The data set is described as above. The conditions noted are these: 24 hr, relative to maximum fold induction by 10 or 20 uM rifampicin. The procedure: as §1, §2

The mark [2] stands for this setting: MT-4 cells infected with HIV-IIIb, 5 days incubation, read-out: EC50.

Experimental findings from patent US20180215769A1, “POLYCYCLIC-CARBAMOYLPYRIDONE COMPOUNDS AND THEIR PHARMACEUTICAL USE” (priority 2012, published 2018) are described below.

Where two headings read alike, the source gives them in different places.

Description for HIV-IIIb: as §3, §4, §5

The molecule `O=C(NCc1ccc(F)cc1F)c1cn2c(c(O)c1=O)C(=O)N1[C@H]3CC[C@H](C3)O[C@@H]1C2` [Compound 2] gave a CC50 at 5 days in data set [1] of 2960 nM. In addition, the EC50 with HIV-IIIb (setting [2]) amounted to 1.9 nM. This molecule showed an Emax at 24 hr, 15 µM at human PXR (NR1I2) of 2.8%.

The molecule `O=C(NCc1ccc(F)cc1F)c1cn2c(c(O)c1=O)C(=O)N1[C@@H]3CC[C@@H](C3)O[C@H]1C2` [Compound 3] yielded a CC50 at 5 days in data set [1] of 36200 nM. Also, in the data set on HIV-IIIb (setting [2]), the EC50 was determined as 1.9 nM. In addition, the Emax at 24 hr, 15 µM at human PXR (NR1I2) came out at 5%.

`O=C(NCc1ccc(F)cc1F)c1cn2c(c(O)c1=O)C(=O)N1C(C2)[N@@]2CC[C@@H]1C2` (stereo partly drawn) [Compound 4, (1 S,4R)—N-(2,4-difluorobenzyl)-7-hydroxy-6,8-dioxo-3,4,6,8,12,12a-hexahydro-2H-1,4-methanopyrido[1′,2′:4,5]pyrazino[1,2-a]pyrimidine-9-carboxamide]: the “% Emax” value at human PXR stood at 3.2%.

In data set [1], `O=C(NCc1ccc(F)cc1F)c1cn2c(c(O)c1=O)C(=O)N1C(C2)[N@]2CC[C@H]1C2` (stereo partly drawn) [Compound 6] came in with a CC50 at 5 days of 53200 nM.

For `O=C(NCc1ccc(F)cc1F)c1cn2c(c(O)c1=O)C(=O)N1C(C2)O[C@H]2CCC[C@@H]1C2` (stereo partly drawn) [Compound 7], at human PXR, the “% Emax” value is 6.5%.

On to `O=C(NCc1ccc(F)cc1F)c1cn2c(c(O)c1=O)C(=O)N1C(C2)O[C@@H]2CCC[C@H]1C2` (stereo partly drawn) [Compound 8], for which, at human PXR, the “% Emax” value is 6.6%.

In the case of `C[C@@H](NC(=O)c1cn2c(c(O)c1=O)C(=O)N1[C@@H]3CC[C@@H](C3)O[C@H]1C2)c1ccc(F)cc1` [Compound 9], the Emax at 24 hr, 15 µM on human PXR (NR1I2) amounted to 0.07%.

On to `C[C@@H](NC(=O)c1cn2c(c(O)c1=O)C(=O)N1[C@H]3CC[C@H](C3)O[C@@H]1C2)c1ccc(F)cc1` [Compound 10], for which, on human PXR (NR1I2), the Emax at 24 hr, 15 µM was determined as 0.19%.

Take `C[C@@H](NC(=O)c1cn2c(c(O)c1=O)C(=O)N1[C@@H]3CC[C@@H](C3)O[C@H]1C2)c1ccc(F)cc1F` [Compound 11]: the concentration giving a half-maximal response (EC50) in the data set with HIV-IIIb (setting [2]) was 4.4 nM.

In data set [1], `C[C@@H](NC(=O)c1cn2c(c(O)c1=O)C(=O)N1[C@H]3CC[C@H](C3)O[C@@H]1C2)c1ccc(F)cc1F` [Compound 12] registered a CC50 at 5 days of 3230 nM. Further, in the data set on HIV-IIIb (setting [2]), the EC50 came out at 5.4 nM.

With `O=C(NCc1ccc(F)c(F)c1)c1cn2c(c(O)c1=O)C(=O)N1[C@@H]3CC[C@@H](C3)O[C@H]1C2` [Compound 18], the “% Emax” value at human PXR stood at 4.4%.

With `O=C(NCc1ccc(F)cc1F)c1cn2c(c(O)c1=O)C(=O)N1C(C2)[N@]2CCC[C@H]1C2` (stereo partly drawn) [Compound 19], on human PXR, the “% Emax” value is on record as 1.5%.

For `O=C(NCc1ccc(F)cc1F)c1cn2c(c(O)c1=O)C(=O)N1C(C2)[N@@]2CCC[C@@H]1C2` (stereo partly drawn) [Compound 20], the “% Emax” value at human PXR is given as 2.4%.

With `O=C(NCc1ccccc1F)c1cn2c(c(O)c1=O)C(=O)N1[C@@H]3CC[C@@H](C3)O[C@H]1C2` [Compound 23], it took 11500 nM to reach half-maximal cytotoxicity in data set [1] (CC50 at 5 days). Further, in the data set on HIV-IIIb (setting [2]), the EC50 is 1.8 nM.

As for `O=C(NCc1cc(F)cc(F)c1)c1cn2c(c(O)c1=O)C(=O)N1[C@@H]3CC[C@@H](C3)O[C@H]1C2` [Compound 24], the half-maximal cytotoxic concentration (CC50) at 5 days in data set [1] (MT4 cells, MT-4 cells, 5 days incubation, read-out: CC50) was found to be 12600 nM. The concentration for a half-maximal effect (EC50) in the data set on HIV-IIIb was determined as 3.4 nM.

In the case of `O=C(NCc1ccc(F)c(C(F)(F)F)c1)c1cn2c(c(O)c1=O)C(=O)N1[C@@H]3CC[C@@H](C3)O[C@H]1C2` [Compound 25], the CC50 at 5 days in data set [1] turned out to be 7070 nM. For the same molecule, the EC50 with HIV-IIIb (setting [2]) worked out at 17.9 nM.

For `O=C(NCc1ccc(Cl)c(F)c1)c1cn2c(c(O)c1=O)C(=O)N1[C@@H]3CC[C@@H](C3)O[C@H]1C2` [Compound 26], the midpoint of cytotoxicity in data set [1], the CC50 at 5 days, lay at 11500 nM. Moreover, the concentration for a half-maximal effect (EC50) with HIV-IIIb (setting [2]) worked out at 8 nM.

As to `O=C(NC1(c2ccc(F)cc2F)CC1)c1cn2c(c(O)c1=O)C(=O)N1C(C2)O[C@H]2CC[C@@H]1C2` (stereo partly drawn) [Compound 27], the EC50 in the data set with HIV-IIIb (setting [2]) came out at 4 nM.

Take `O=C(NC1(c2ccc(F)cc2F)CC1)c1cn2c(c(O)c1=O)C(=O)N1C(C2)O[C@H]2CCC[C@@H]1C2` (stereo partly drawn) [Compound 28]: the “% Emax” value on human PXR is 6.1%.

Consider `O=C(NC1(c2ccc(F)cc2F)CC1)c1cn2c(c(O)c1=O)C(=O)N1C(C2)O[C@@H]2CCC[C@H]1C2` (stereo partly drawn) [Compound 29], for which the “% Emax” value on human PXR came out at 3.2%.

Consider `O=C(NC1(c2ccc(F)cc2F)CCCCC1)c1cn2c(c(O)c1=O)C(=O)N1C(C2)O[C@H]2CC[C@@H]1C2` (stereo partly drawn) [Compound 34], for which the EC50 with HIV-IIIb was 456 nM.

Regarding `O=C(N[C@@H](c1ccc(F)cc1F)C(F)(F)F)c1cn2c(c(O)c1=O)C(=O)N1C(C2)O[C@H]2CC[C@@H]1C2` (stereo partly drawn) [Compound 36], the midpoint of cytotoxicity in data set [1], the CC50 at 5 days, lay at 13500 nM. Further, in the data set with HIV-IIIb (setting [2]), the EC50 was found to be 3.5 nM.

For `C[C@H]1CO[C@@H]2Cn3cc(C(=O)NC4(c5ccc(F)cc5F)CC4)c(=O)c(O)c3C(=O)N12` [Compound 37, (3S,11aR)—N-(1-(2,4-difluorophenyl)cyclopropyl)-6-hydroxy-3-methyl-5,7-dioxo-2,3,5,7,11,11a-hexahydrooxazolo[3,2-a]pyrido[1,2-d]pyrazine-8-carboxamide], the “% Emax” value on human PXR is on record as 1.5%.
